Laboratory results as given in paper PMC5578959, “Selective LRRK2 kinase inhibition reduces phosphorylation of endogenous Rab10 and Rab12 in human peripheral mononuclear blood cells” (Scientific Reports, 2017).

Tests used:
Type in all cases: binding
[1] = system: kinases other than LRRK2 (off-target kinases); test: KiNativ broad kinase profiling in human PBMCs; conditions: 100 nM, acutely isolated human PBMCs
Procedure: (§1) Compounds were shipped to ActivX Technologies (San Diego, US) where LRRK2 target engagement and broad kinase profiling was performed using KiNativ™ procedures. Live cell treatment of human peripheral blood mononuclear cells (PBMCs) at two compound concentrations (1 µM and 0.1 µM) were used to evaluate and compare in vitro target engagement and kinase selectivity, respectively (see Supplementary File 1).

ACK = system: T1, ACK; test: KiNativ profiling in human PBMCs; conditions: Lys1
T1 construct: purchased ActivX Technologies (KiNativ)
Procedure: as §1

AKT2,AKT3 = test: KiNativ profiling in human PBMCs; conditions: ATP Loop
Procedure: as §1

CDK5 = system: T2, CDK5; test: KiNativ profiling in human PBMCs
T2 construct: purchased ActivX Technologies (KiNativ)
Procedure: as §1

Erk5 = system: T3, Erk5; test: KiNativ profiling in human PBMCs; conditions: Lys2
T3 construct: purchased ActivX Technologies (KiNativ)
Procedure: as §1

FRAP = system: T4, FRAP; test: KiNativ profiling in human PBMCs; conditions: 0.1µM; ATP
T4 construct: purchased ActivX Technologies (KiNativ)
Procedure: as §1

GSK3A = system: T5, GSK3A; test: KiNativ profiling in human PBMCs; conditions: Lys2
T5 construct: purchased ActivX Technologies (KiNativ)
Procedure: as §1

GSK3B = system: T6, GSK3B; test: KiNativ profiling in human PBMCs; conditions: Lys2
T6 construct: purchased ActivX Technologies (KiNativ)
Procedure: as §1

HCK = system: T7, HCK; test: KiNativ profiling in human PBMCs
T7 construct: purchased ActivX Technologies (KiNativ)
Procedure: as §1

IRAK3 = system: T8, IRAK3; test: KiNativ profiling in human PBMCs; conditions: Lys1
T8 construct: purchased ActivX Technologies (KiNativ)
Procedure: as §1

JAK1 domain1 = system: T9, JAK1 domain1; test: KiNativ profiling in human PBMCs; conditions: Protein Kinase Domain
T9 construct: JAK1 domain1; purchased ActivX Technologies (KiNativ)
Procedure: as §1

JNK1,JNK2,JNK3 = test: KiNativ profiling in human PBMCs; conditions: Lys2
Procedure: as §1

MAP2K3 = system: T10, MAP2K3; test: KiNativ profiling in human PBMCs
T10 construct: purchased ActivX Technologies (KiNativ)
Procedure: as §1

MAP2K4 = system: T11, MAP2K4; test: KiNativ profiling in human PBMCs
T11 construct: purchased ActivX Technologies (KiNativ)
Procedure: as §1

MAP2K7 = system: T12, MAP2K7; test: KiNativ profiling in human PBMCs; conditions: Lys2
T12 construct: purchased ActivX Technologies (KiNativ)
Procedure: as §1

MAP3K5 = system: T13, MAP3K5; test: KiNativ profiling in human PBMCs; conditions: Lys2
T13 construct: purchased ActivX Technologies (KiNativ)
Procedure: as §1

MLKL = system: T14, MLKL; test: KiNativ profiling in human PBMCs; conditions: Lys1
T14 construct: purchased ActivX Technologies (KiNativ)
Procedure: as §1

MST1,MST2 = test: KiNativ profiling in human PBMCs; conditions: Lys2
Procedure: as §1

MST2 = system: T15, MST2; test: KiNativ profiling in human PBMCs; conditions: Lys1
T15 construct: purchased ActivX Technologies (KiNativ)
Procedure: as §1

PAN3 = system: T16, PAN3; test: KiNativ profiling in human PBMCs; conditions: ATP
T16 construct: purchased ActivX Technologies (KiNativ)
Procedure: as §1

PIK3CG = system: T17, PIK3CG; test: KiNativ profiling in human PBMCs; conditions: ATP
T17 construct: purchased ActivX Technologies (KiNativ)
Procedure: as §1

PIP4K2A = system: T18, PIP4K2A; test: KiNativ profiling in human PBMCs; conditions: ATP
T18 construct: purchased ActivX Technologies (KiNativ)
Procedure: as §1

PKD2 = system: T19, PKD2; test: KiNativ profiling in human PBMCs; conditions: Lys1
T19 construct: purchased ActivX Technologies (KiNativ)
Procedure: as §1

PYK2 = system: T20, PYK2; test: KiNativ profiling in human PBMCs
T20 construct: purchased ActivX Technologies (KiNativ)
Procedure: as §1

QSK = system: T21, QSK; test: KiNativ profiling in human PBMCs; conditions: Lys1
T21 construct: purchased ActivX Technologies (KiNativ)
Procedure: as §1

RSK1 domain1 = system: T22, RSK1 domain1; test: KiNativ profiling in human PBMCs
T22 construct: RSK1 domain1; purchased ActivX Technologies (KiNativ)
Procedure: as §1

RSK2 domain2 = system: T23, RSK2 domain2; test: KiNativ profiling in human PBMCs; conditions: Lys2
T23 construct: RSK2 domain2; purchased ActivX Technologies (KiNativ)
Procedure: as §1

SLK = system: T24, SLK; test: KiNativ profiling in human PBMCs
T24 construct: purchased ActivX Technologies (KiNativ)
Procedure: as §1

SNRK = system: T25, SNRK; test: KiNativ profiling in human PBMCs
T25 construct: purchased ActivX Technologies (KiNativ)
Procedure: as §1

STLK3 = system: T26, STLK3; test: KiNativ profiling in human PBMCs; conditions: Lys2
T26 construct: purchased ActivX Technologies (KiNativ)
Procedure: as §1

TBK1 = system: T27, TBK1; test: KiNativ profiling in human PBMCs; conditions: Lys1
T27 construct: purchased ActivX Technologies (KiNativ)
Procedure: as §1

ULK3 = system: T28, ULK3; test: KiNativ profiling in human PBMCs
T28 construct: purchased ActivX Technologies (KiNativ)
Procedure: as §1

Wnk1,Wnk2,Wnk3 = test: KiNativ profiling in human PBMCs; conditions: Lys2
Procedure: as §1

Wnk1,Wnk2,Wnk4 = test: KiNativ profiling in human PBMCs; conditions: Activation Loop
Procedure: as §1

ZAK = system: T29, ZAK; test: KiNativ profiling in human PBMCs; conditions: Lys1
T29 construct: purchased ActivX Technologies (KiNativ)
Procedure: as §1

p38a = system: T30, p38a; test: KiNativ profiling in human PBMCs
T30 construct: purchased ActivX Technologies (KiNativ)
Procedure: as §1

smMLCK = system: T31, smMLCK; test: KiNativ profiling in human PBMCs
T31 construct: purchased ActivX Technologies (KiNativ)
Procedure: as §1

Cn1cc(-c2c[nH]c3ncnc(N4CCOCC4)c23)cc1C#N [PFE-360]
inhibition of off-target kinases [1]: ≤ 60% | % Inhibition (ACK; 0.1µM): -5.6% | % Inhibition (ACK; 1µM): -0.5% | % Inhibition (AKT2,AKT3; 0.1µM): -2.2% | % Inhibition (AKT2,AKT3; 1µM): -5.2% | % Inhibition (CDK5; 0.1µM, Lys1): -2.7% | % Inhibition (CDK5; 0.1µM, Lys2): 3.9% | % Inhibition (CDK5; 1µM, Lys1): -6.7% | % Inhibition (CDK5; 1µM, Lys2): -7.1% | % Inhibition (Erk5; 0.1µM): 5% | % Inhibition (Erk5; 1µM): 7.2% | % Inhibition (FRAP): -1.2% | % Inhibition (GSK3A; 0.1µM): 10.6% | % Inhibition (GSK3A; 1µM): 19.8% | % Inhibition (GSK3B; 0.1µM): 11.2% | % Inhibition (GSK3B; 1µM): 14.9% | % Inhibition (HCK; 0.1µM, Activation Loop): -0.8% | % Inhibition (HCK; 0.1µM, Lys1): -20.8% | % Inhibition (HCK; 1µM, Activation Loop): -4.1% | % Inhibition (HCK; 1µM, Lys1): 12.3% | % Inhibition (IRAK3; 0.1µM): -1.2% | % Inhibition (IRAK3; 1µM): 3% | % Inhibition (JAK1 domain1; 0.1µM): 16.2% | % Inhibition (JAK1 domain1; 1µM): 8.2% | % Inhibition (JNK1,JNK2,JNK3; 0.1µM): 2.1% | % Inhibition (JNK1,JNK2,JNK3; 1µM): -12% | % Inhibition (MAP2K3; 0.1µM, Lys1): -7.9% | % Inhibition (MAP2K3; 0.1µM, Lys2): 9.4% | % Inhibition (MAP2K3; 1µM, Lys1): 11.1% | % Inhibition (MAP2K3; 1µM, Lys2): -11.7% | % Inhibition (MAP2K4; 0.1µM, Lys1): -7.3% | % Inhibition (MAP2K4; 0.1µM, Lys2): 7.4% | % Inhibition (MAP2K4; 1µM, Lys1): 11% | % Inhibition (MAP2K4; 1µM, Lys2): -3.8% | % Inhibition (MAP2K7; 0.1µM): 7.5% | % Inhibition (MAP2K7; 1µM): -1.1% | % Inhibition (MAP3K5; 0.1µM): 44.3% | % Inhibition (MAP3K5; 1µM): 60.3% | % Inhibition (MLKL; 0.1µM): 2.3% | % Inhibition (MLKL; 1µM): 5.2% | % Inhibition (MST1,MST2; 0.1µM): 15% | % Inhibition (MST1,MST2; 1µM): 39.1% | % Inhibition (MST2; 0.1µM): 15.1% | % Inhibition (MST2; 1µM): 48% | % Inhibition (PAN3; 0.1µM): -22.1% | % Inhibition (PAN3; 1µM): 10.4% | % Inhibition (PIK3CG; 0.1µM): -1.2% | % Inhibition (PIK3CG; 1µM): -7% | % Inhibition (PIP4K2A; 0.1µM, peptide AKELPTLKDNDFINEGQK): -3.9% | % Inhibition (PIP4K2A; 0.1µM, peptide YIIKTITSEDVAEMHNILK): -34.5% | % Inhibition (PIP4K2A; 1µM, peptide AKELPTLKDNDFINEGQK): -16.3% | % Inhibition (PIP4K2A; 1µM, peptide YIIKTITSEDVAEMHNILK): -40% | % Inhibition (PKD2; 0.1µM): 3.7% | % Inhibition (PKD2; 1µM): -5.1% | % Inhibition (PYK2; 0.1µM, Activation Loop): 8.4% | % Inhibition (PYK2; 0.1µM, Lys1): 29.3% | % Inhibition (PYK2; 1µM, Activation Loop): 7.1% | % Inhibition (PYK2; 1µM, Lys1): -2.2% | % Inhibition (QSK; 0.1µM): -13% | % Inhibition (QSK; 1µM): -12.1% | % Inhibition (RSK1 domain1; 0.1µM, Activation Loop): 4.6% | % Inhibition (RSK1 domain1; 0.1µM, Lys1): -11.3% | % Inhibition (RSK1 domain1; 0.1µM, Lys2): -4.4% | % Inhibition (RSK1 domain1; 1µM, Activation Loop): 1.1% | % Inhibition (RSK1 domain1; 1µM, Lys1): 3.4% | % Inhibition (RSK1 domain1; 1µM, Lys2): 10.9% | % Inhibition (RSK2 domain2; 0.1µM): -7.4% | % Inhibition (RSK2 domain2; 1µM): -13.8% | % Inhibition (SLK; 0.1µM, Lys1): 3.8% | % Inhibition (SLK; 0.1µM, Lys2): 4.8% | % Inhibition (SLK; 1µM, Lys1): 22.3% | % Inhibition (SLK; 1µM, Lys2): -8.4% | % Inhibition (SNRK; 0.1µM, Lys1): 17.1% | % Inhibition (SNRK; 0.1µM, Lys2): -21.9% | % Inhibition (SNRK; 1µM, Lys1): -2% | % Inhibition (SNRK; 1µM, Lys2): -18.7% | % Inhibition (STLK3; 0.1µM): -1.9% | % Inhibition (STLK3; 1µM): -6.2% | % Inhibition (TBK1; 0.1µM): -29% | % Inhibition (TBK1; 1µM): 2.1% | % Inhibition (ULK3; 0.1µM, Lys1): 1% | % Inhibition (ULK3; 0.1µM, Lys2): -2.5% | % Inhibition (ULK3; 1µM, Lys1): -3% | % Inhibition (ULK3; 1µM, Lys2): 0.6% | % Inhibition (Wnk1,Wnk2,Wnk3; 0.1µM): 11.3% | % Inhibition (Wnk1,Wnk2,Wnk3; 1µM): 1.3% | % Inhibition (Wnk1,Wnk2,Wnk4; 0.1µM): 4.7% | % Inhibition (Wnk1,Wnk2,Wnk4; 1µM): 2.2% | % Inhibition (ZAK; 0.1µM): -12.2% | % Inhibition (ZAK; 1µM): -10.2% | % Inhibition (p38a; 0.1µM, Lys2): 7.1% | % Inhibition (p38a; 0.1µM, Protein Kinase Domain): 7.5% | % Inhibition (p38a; 1µM, Lys2): -2.9% | % Inhibition (p38a; 1µM, Protein Kinase Domain): 1% | % Inhibition (smMLCK; 0.1µM, Lys1): 1.5% | % Inhibition (smMLCK; 0.1µM, Lys2): -14.6% | % Inhibition (smMLCK; 1µM, Lys1): -16.9% | % Inhibition (smMLCK; 1µM, Lys2): 3.3%
